One block for each molecule: values may come before it.
Tests used:
CYP3A4 = CYP3A4 (Homo sapiens, UniProt P08684); assay: Inhibition of CYP3A4 in human liver microsomes using testosterone as substrate assessed as residual activity at 10 uM preincubated for 30 mins followed by substrate addition measured after 10 mins in presence of NADPH by LC-MS/MS analysis; format: ADME; settings: probe testosterone, read-out: Activity
[1] = Drug metabolism in human liver microsomes assessed as metabolic rate per mg protein at 1 uM measured at 3 to 30 mins by LC-MS/MS analysis; format: ADME, microsome
SH-SY5Y [2] = assay: Induction of VGF gene expression in human SH-SY5Y cells at 3 uM after 24 hrs by qRT-PCR analysis relative to control; format: functional
SH-SY5Y [3] = assay: Cytoprotective activity against tunicamycin-induced ER stress in human SH-SY5Y cells assessed as cell viability at 3 uM preincubated for 1 hr followed by tunicamycin addition measured after 48 hrs by WST-8 assay (reference value: 45 +/- 6.6%); format: functional; settings: read-out: Activity
SH-SY5Y [4] = assay: Induction of VGF gene expression in human SH-SY5Y cells at 3 uM after 24 hrs by qRT-PCR analysis relative to SUN N8075; format: functional
SH-SY5Y [5] = assay: Cytoprotective activity against tunicamycin-induced ER stress in human SH-SY5Y cells assessed as cell viability at 3 uM preincubated for 1 hr followed by tunicamycin addition measured after 48 hrs by WST-8 assay relative to SUN N8075; format: functional; settings: read-out: Activity

CYP3A4, sequence (P08684 whole entry): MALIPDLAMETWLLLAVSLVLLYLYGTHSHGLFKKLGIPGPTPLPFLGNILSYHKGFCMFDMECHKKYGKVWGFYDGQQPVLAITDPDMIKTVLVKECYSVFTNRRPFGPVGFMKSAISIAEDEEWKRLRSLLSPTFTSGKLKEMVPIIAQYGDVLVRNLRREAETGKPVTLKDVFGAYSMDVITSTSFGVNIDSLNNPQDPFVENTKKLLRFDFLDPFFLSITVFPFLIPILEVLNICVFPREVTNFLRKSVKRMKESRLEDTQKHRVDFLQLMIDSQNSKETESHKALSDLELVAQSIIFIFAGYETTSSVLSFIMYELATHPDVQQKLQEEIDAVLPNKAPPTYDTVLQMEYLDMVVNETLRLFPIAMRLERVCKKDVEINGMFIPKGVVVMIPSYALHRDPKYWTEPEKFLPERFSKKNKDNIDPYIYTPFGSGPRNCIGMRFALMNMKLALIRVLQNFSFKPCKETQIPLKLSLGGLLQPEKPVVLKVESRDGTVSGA

SMILES: Cl.Cl.Cl.Fc1ccc(Cc2ccc(N3CCN(CC(F)(F)COc4ccc5ncccc5c4)CC3)cc2)cc1
Activity (SH-SY5Y [4]): 68% | viability at 3 µM (SH-SY5Y [5]): 67% | activity at 10 min, 10 µM (CYP3A4): 93% | Drug metabolism [1]: 34 pmol/min

SMILES: Cl.Cl.Cl.Fc1ccc(Cc2ccc(N3CCN(CC(F)COc4ccncc4)CC3)cc2)cc1 (stereo unspecified)
Activity (SH-SY5Y [4]): 13% | viability at 3 µM (SH-SY5Y [5]): 13% | activity at 10 min, 10 µM (CYP3A4): 101% | Drug metabolism [1]: < 10 pmol/min

SMILES: Cc1cc(OCC(F)CN2CCN(c3ccc(Cc4ccc(F)cc4)cc3)CC2)cc(C)n1.Cl.Cl.Cl (stereo unspecified)
Activity (SH-SY5Y [4]): 79% | viability at 3 µM (SH-SY5Y [5]): 82% | activity at 10 min, 10 µM (CYP3A4): 67% | Drug metabolism [1]: 41 pmol/min

SMILES: Cc1cc(OC[C@@H](F)CN2CCN(c3ccc(Cc4ccc(F)cc4)cc3)CC2)cc(C)n1.Cl
Activity (SH-SY5Y [4]): 68% | viability at 3 µM (SH-SY5Y [5]): 96% | activity at 10 min, 10 µM (CYP3A4): 80% | Drug metabolism [1]: 37 pmol/min

SMILES: Cc1cc(OC[C@H](F)CN2CCN(c3ccc(Cc4ccc(F)cc4)cc3)CC2)cc(C)n1.Cl
Activity (SH-SY5Y [4]): 78% | viability at 3 µM (SH-SY5Y [5]): 93% | activity at 10 min, 10 µM (CYP3A4): 83% | Drug metabolism [1]: 71 pmol/min

SMILES: Cc1cc(OCC(F)CN2CCN(c3ccc(Cc4ccc(F)cc4)cc3)CC2)c(C)c(C)c1N.Cl.Cl.Cl (stereo unspecified)
Activity (SH-SY5Y [4]): 126% | viability at 3 µM (SH-SY5Y [5]): 94% | activity at 10 min, 10 µM (CYP3A4): 75% | Drug metabolism [1]: 106 pmol/min

SMILES: Cc1cc(C)c(C)c(OCC(F)CN2CCN(c3ccc(Cc4ccc(F)cc4)cc3)CC2)c1.Cl.Cl (stereo unspecified)
Activity (SH-SY5Y [4]): 75% | viability at 3 µM (SH-SY5Y [5]): 60% | activity at 10 min, 10 µM (CYP3A4): 107% | Drug metabolism [1]: 25 pmol/min

SMILES: Cl.Cl.Cl.Fc1ccc(Cc2ccc(N3CCN(CC(F)COc4ccc5ncccc5c4)CC3)cc2)cc1 (stereo unspecified)
Activity (SH-SY5Y [4]): 77% | viability at 3 µM (SH-SY5Y [5]): 89% | activity at 10 min, 10 µM (CYP3A4): 82% | Drug metabolism [1]: 79 pmol/min

Continued, in another order:

activity at 10 min, 10 µM (CYP3A4): 57% | Drug metabolism [1]: 153 pmol/min
SMILES: CS(=O)(=O)O.CS(=O)(=O)O.Cc1cc(OCC(O)CN2CCN(c3ccc(Cc4ccc(F)cc4)cc3)CC2)c(C)c(C)c1N (stereo unspecified)
fold change (FC) (SH-SY5Y [2]): 5.1 | viability at 3 µM (SH-SY5Y [3]): 82%

activity at 10 min, 10 µM (CYP3A4): 108% | Drug metabolism [1]: 17 pmol/min
SMILES: Cc1cc(S(N)(=O)=O)ccc1OCC(F)CN1CCN(c2ccc(Cc3ccc(F)cc3)cc2)CC1 (stereo unspecified)
Activity (SH-SY5Y [4]): 114% | viability at 3 µM (SH-SY5Y [5]): 105%

activity at 10 min, 10 µM (CYP3A4): 76% | Drug metabolism [1]: 34 pmol/min
SMILES: NC(=O)c1ccc(OCC(F)CN2CCN(c3ccc(Cc4ccc(F)cc4)cc3)CC2)cc1 (stereo unspecified)
Activity (SH-SY5Y [4]): 20% | viability at 3 µM (SH-SY5Y [5]): 21%

activity at 10 min, 10 µM (CYP3A4): 94% | Drug metabolism [1]: 47 pmol/min
SMILES: Cl.Fc1ccc(Cc2ccc(N3CCN(CCCOc4ccc5ncccc5c4)CC3)cc2)cc1
Activity (SH-SY5Y [4]): 52% | viability at 3 µM (SH-SY5Y [5]): 75%

activity at 10 min, 10 µM (CYP3A4): 70% | Drug metabolism [1]: 122 pmol/min
SMILES: OC(COc1ccc2ncccc2c1)CN1CCN(c2ccc(Cc3ccc(F)cc3)cc2)CC1 (stereo unspecified)
Activity (SH-SY5Y [4]): 36% | viability at 3 µM (SH-SY5Y [5]): 64%

activity at 10 min, 10 µM (CYP3A4): 88% | Drug metabolism [1]: 27 pmol/min
SMILES: O=C1CCc2cc(OCC(O)CN3CCN(c4ccc(Cc5ccc(F)cc5)cc4)CC3)ccc2N1 (stereo unspecified)
Activity (SH-SY5Y [4]): 32% | viability at 3 µM (SH-SY5Y [5]): 33%

activity at 10 min, 10 µM (CYP3A4): 59% | Drug metabolism [1]: 79 pmol/min
SMILES: OC(COc1ccc2[nH]ccc2c1)CN1CCN(c2ccc(Cc3ccc(F)cc3)cc2)CC1 (stereo unspecified)
Activity (SH-SY5Y [4]): 30% | viability at 3 µM (SH-SY5Y [5]): 43%

Drug metabolism [1]: 28 pmol/min
SMILES: Cl.OC(COc1ccccc1)CN1CCN(c2ccc(Cc3ccc(F)cc3)cc2)CC1 (stereo unspecified)
Activity (SH-SY5Y [4]): 8% | viability at 3 µM (SH-SY5Y [5]): 43%

activity at 10 min, 10 µM (CYP3A4): 99% | Drug metabolism [1]: 12 pmol/min
SMILES: NS(=O)(=O)c1ccc(OCC(F)CN2CCN(c3ccc(Cc4ccc(F)cc4)cc3)CC2)cc1 (stereo unspecified)
Activity (SH-SY5Y [4]): 71% | viability at 3 µM (SH-SY5Y [5]): 88%

activity at 10 min, 10 µM (CYP3A4): 92% | Drug metabolism [1]: 32 pmol/min
SMILES: Cc1cc(S(N)(=O)=O)c(C)c(C)c1OCC(F)CN1CCN(c2ccc(Cc3ccc(F)cc3)cc2)CC1 (stereo unspecified)
Activity (SH-SY5Y [4]): 172% | viability at 3 µM (SH-SY5Y [5]): 106%

— ChEMBL document CHEMBL4219268, “Synthesis and evaluation of N-(4-benzylphenyl)piperazines as VGF inducers” (Bioorg Med Chem Lett, 2018)
